Reference: US20230127944A1, “BROAD-SPECTRUM CARBAPENEMS” (priority 2019, published 2023)
Values after ≈ are worked out from the molar mass of the structure shown.

Key:
Format in all cases: cell-based
[1] = test system: P. aeruginosa ΔmexAB-OprM (an efflux pump knockout); experiment: broth microdilution MIC assay, P. aeruginosa ΔmexAB-OprM; conditions: Pseudomonas aeruginosa, read-out: MIC, P. aeruginosa ΔmexAB-OprM
Experimental: (§1) To determine the ability of test compounds to inhibit the growth of bacterial strains, classic cell-based broth microdilution MIC assays were employed. MIC assays are performed according to CLSI methods except where otherwise noted (CLSI, 2011 and CLSI, 2009). The reference strains S. aureus ATCC 29213 (methicillin sensitive), S. aureus ATCC 33591 (methicillin-resistant), E. coli ATCC 25922 (wild-type/QC strain), P. aeruginosa ATCC 27853 (wild-type/QC strain), and the clinical isolate P. aeruginosa PA 8 were used to determine the ability of the exemplary carbapenem compounds to inhibit bacterial growth. An expanded panel of methicillin resistance S. aureus (MRSA) and Pseudomonas was also used to determine the ability of exemplary carbapenem compounds to inhibit bacterial growth across a broader representation of those species. To determine activity in MRSA and in addition to S. aureus ATCC 33591, S. aureus USA 300 and USA 600, some of the most common clones found to cause human infection, were also used. To further gauge the impact on the carbapenem compounds due to various resistance mechanisms in Pseudomonas, the following strains were included: P. aeruginosa 35151 (hyper-permeable strain), P. aeruginosa ΔmexAB-OprM (an efflux pump knockout), and P. aeruginosa Paβ-173 (a clinical isolate of reduced carbapenem susceptibility). Briefly, cryo-preserved bacterial cultures of clinical strains are streaked for isolation on appropriate agar medium, in this case Mueller Hinton II agar. Following incubation to allow formation of colonies, these plates are sealed with parafilm and stored refrigerated for up to two weeks. For preparation of assay inocula and to ensure low variability, at least 5 colonies are picked from the agar plates with an inoculating loop and aseptically transferred to a culture tube containing 3 mL of Mueller-Hinton Broth (supplemented with divalent cations to required levels based on Manufacturers' specification). The broth culture is grown for 3-5 hours at 37° C. with shaking at 200 rpm. Meanwhile, 2-fold serial dilutions of test compounds are conducted in a 96 well plate with a final volume of 75 μL per well at 2-fold the final desired concentration. After the dilution plates are set up the growing cultures are then diluted in a cuvette containing MH II broth and the optical density is measured at 600 nm. Inocula are diluted such that 75 μL of this culture in Mueller-Hinton Broth results in a starting bacterial concentration of 5×10^5 CFU/mL when added to the dilution plates. The plates are incubated 16-20 hours at 37° C. The MIC is read visually as the lowest concentration well with no bacterial growth.

[2] = test system: S. aureus USA 300; experiment: broth microdilution MIC assay, S. aureus USA300; conditions: Staphylococcus aureus; S. aureus USA300 (MRSA); read-out: MIC, S. aureus USA300
Experimental: as §1

[3] = test system: P. aeruginosa 35151 (hyper-permeable strain); experiment: broth microdilution MIC assay, P. aeruginosa 35151; conditions: Pseudomonas aeruginosa, read-out: MIC, P. aeruginosa 35151
Experimental: as §1

[4] = test system: S. aureus ATCC 33591 (methicillin-resistant); experiment: broth microdilution MIC assay, S. aureus 33591; conditions: Staphylococcus aureus, ATCC33591; S. aureus 33591, methicillin-resistant; read-out: MIC, S. aureus 33591
Experimental: as §1

[5] = test system: P. aeruginosa Paeβ-17; experiment: broth microdilution MIC assay, P. aeruginosa Paeβ-17; conditions: Pseudomonas aeruginosa, read-out: MIC, P. aeruginosa Paeβ-17
Experimental: as §1

[6] = test system: E. coli ATCC 25922 (wild-type/QC strain); experiment: broth microdilution MIC assay, E. coli 25922; conditions: Escherichia coli, ATCC25922; read-out: MIC, E. coli 25922
Experimental: as §1

[7] = test system: S. aureus USA 600; experiment: broth microdilution MIC assay, S. aureus USA600; conditions: Staphylococcus aureus; S. aureus USA600 (MRSA); read-out: MIC, S. aureus USA600
Experimental: as §1

[8] = test system: P. aeruginosa ATCC 27853 (wild-type/QC strain); experiment: broth microdilution MIC assay, P. aeruginosa 27853; conditions: Pseudomonas aeruginosa, ATCC27853; read-out: MIC, P. aeruginosa 27853
Experimental: as §1

Row | SMILES | MIC [1] [µg/mL] | MIC [2] [µg/mL] | MIC [3] [µg/mL] | MIC [4] [µg/mL] | MIC [5] [µg/mL] | MIC [6] [µg/mL] | MIC [7] [µg/mL] | MIC [8] [µg/mL]
1 | C[C@@H](O)[C@H]1C(=O)N2C(C(=O)O)=C(SC3CN(C[C@@H]4CCN(C(=N)N)C4)C3)[C@H](C)[C@H]12 [Example 39, (4R,5S,6S)-3-((1-(((S)-1-carbamimidoylpyrrolidin-3-yl)methyl)azetidin-3-yl)thio)-6-((R)-1-hydroxyethyl)-4-methyl-7-oxo-1-azabicyclo[3.2.0]hept-2-ene-2-carboxylic acid] | 1 to 4 (≈ 2.36 to 9.44 µM) | 1 to 4 (≈ 2.36 to 9.44 µM) | 1 to 4 (≈ 2.36 to 9.44 µM) | 8 to 32 (≈ 18.9 to 75.6 µM) | > 32 | < 1 | 1 to 4 (≈ 2.36 to 9.44 µM) | 8 to 32 (≈ 18.9 to 75.6 µM)
2 | C[C@@H](O)[C@H]1C(=O)N2C(C(=O)O)=C(SC3CN(CC4CCN(C)CC4)C3)[C@H](C)[C@H]12 [Example 40, (4R,5S,6S)-6-((R)-1-hydroxyethyl)-4-methyl-3-((1-((1-methylpiperidin-4-yl)methyl)azetidin-3-yl)thio)-7-oxo-1-azabicyclo[3.2.0]hept-2-ene-2-carboxylic acid] | 1 to 4 (≈ 2.44 to 9.77 µM) | 1 to 4 (≈ 2.44 to 9.77 µM) | < 1 | 8 to 32 (≈ 19.5 to 78.1 µM) | 8 to 32 (≈ 19.5 to 78.1 µM) | < 1 | 1 to 4 (≈ 2.44 to 9.77 µM) | 8 to 32 (≈ 19.5 to 78.1 µM)
3 | C[C@@H](O)[C@H]1C(=O)N2C(C(=O)O)=C(S[C@@H]3CCN(C[C@H]4CC[C@H](CNC(=N)N)CC4)C3)[C@H](C)[C@H]12 [Example 41, (4R,5S,6S)-3-(((R)-1-(((1R,4R)-4-(guanidinomethyl)cyclohexyl)methyl)pyrrolidin-3-yl)thio)-6-((R)-1-hydroxyethyl)-4-methyl-7-oxo-1-azabicyclo[3.2.0]hept-2-ene-2-carboxylic acid] | 1 to 4 (≈ 2.08 to 8.34 µM) | 1 to 4 (≈ 2.08 to 8.34 µM) | < 1 | 1 to 4 (≈ 2.08 to 8.34 µM) | 8 to 32 (≈ 16.7 to 66.7 µM) | < 1 | 1 to 4 (≈ 2.08 to 8.34 µM) | 1 to 4 (≈ 2.08 to 8.34 µM)
4 | C[C@@H](O)[C@H]1C(=O)N2C(C(=O)O)=C(SC3CN(C4CCN(C)CC4)C3)[C@H](C)[C@H]12 [Example 42, (4R,5S,6S)-6-((R)-1-hydroxyethyl)-4-methyl-3-((1-(1-methylpiperidin-4-yl)azetidin-3-yl)thio)-7-oxo-1-azabicyclo[3.2.0]hept-2-ene-2-carboxylic acid] | 8 to 32 (≈ 20.2 to 80.9 µM) | 1 to 4 (≈ 2.53 to 10.1 µM) | < 1 | 8 to 32 (≈ 20.2 to 80.9 µM) | 8 to 32 (≈ 20.2 to 80.9 µM) | < 1 | 1 to 4 (≈ 2.53 to 10.1 µM) | 8 to 32 (≈ 20.2 to 80.9 µM)
5 | C[C@@H](O)[C@H]1C(=O)N2C(C(=O)O)=C(S[C@H]3C[C@@H](NC4CCN(C(=N)N)CC4)C3)[C@H](C)[C@H]12 [Example 43, (4R,5S,6S)-3-(((1S,3S)-3-((1-carbamimidoylpiperidin-4-yl)amino)cyclobutyl)thio)-6-((R)-1-hydroxyethyl)-4-methyl-7-oxo-1-azabicyclo[3.2.0]hept-2-ene-2-carboxylic acid] | 1 to 4 (≈ 2.29 to 9.14 µM) | < 1 | < 1 | 1 to 4 (≈ 2.29 to 9.14 µM) | 8 to 32 (≈ 18.3 to 73.1 µM) | < 1 | < 1 | 1 to 4 (≈ 2.29 to 9.14 µM)
6 | C[C@@H](O)[C@H]1C(=O)N2C(C(=O)O)=C(S[C@H]3C[C@@H](NC4CCNCC4)C3)[C@H](C)[C@H]12 [Example 44, (4R,5S,6S)-6-((R)-1-hydroxyethyl)-4-methyl-7-oxo-3-(((1S,3S)-3-(piperidin-4-ylamino)cyclobutyl)thio)-1-azabicyclo[3.2.0]hept-2-ene-2-carboxylic acid] | 1 to 4 (≈ 2.53 to 10.1 µM) | 1 to 4 (≈ 2.53 to 10.1 µM) | < 1 | 8 to 32 (≈ 20.2 to 80.9 µM) | 8 to 32 (≈ 20.2 to 80.9 µM) | < 1 | 1 to 4 (≈ 2.53 to 10.1 µM) | 8 to 32 (≈ 20.2 to 80.9 µM)
